# Target: T1, human oxytocin receptor (Homo sapiens, UniProt P30559)
# T1 construct: host or cells: CHO cells (pcDNA3.1 vector)
# T1 sequence (P30559 1-389): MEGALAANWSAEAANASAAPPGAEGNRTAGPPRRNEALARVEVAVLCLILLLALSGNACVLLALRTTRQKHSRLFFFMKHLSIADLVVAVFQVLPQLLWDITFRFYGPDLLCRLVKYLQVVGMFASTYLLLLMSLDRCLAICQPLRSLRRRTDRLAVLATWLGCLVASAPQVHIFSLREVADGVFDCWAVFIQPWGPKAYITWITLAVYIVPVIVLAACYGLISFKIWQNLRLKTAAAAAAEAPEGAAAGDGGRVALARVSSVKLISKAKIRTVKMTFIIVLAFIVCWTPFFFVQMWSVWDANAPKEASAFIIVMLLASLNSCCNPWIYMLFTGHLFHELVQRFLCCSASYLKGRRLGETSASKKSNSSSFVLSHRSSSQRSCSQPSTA
# Test: Oxytocin binding in Chinese Hamster Ovary cell membranes expressing human oxytocin receptors
# Details: 100 nM, CHO cell membranes, [3H]oxytocin, values without parentheses, read-out: OT % inhibition @ 100% nM
row,Compound,inhibition at 0.1 µM [%]
1,"Cc1ccccc1-c1ccc(C(=O)N2Cc3ccc(C(=O)N4CCN(CCCN(C)C)CC4)n3Cc3ccccc32)cc1C [Example 247, {4-[3-(Dimethylamino)propyl]-1-piperazinyl}{10-[(2,2′-dimethyl[1,1′-biphenyl]-4-yl)carbonyl]-10,11-dihydro-5H-pyrrolo[2,1-c][1,4]benzodiazepin-3-yl}methanone]",97
2,"COc1cccc(-c2ccc(C(=O)N3Cc4ccc(C(=O)N5CCN(C)CC5)n4Cc4ccccc43)cc2OC)c1 [Example 57, {10-[(2,3′-Dimethoxy[1,1′-biphenyl]-4-yl)carbonyl]-10,11-dihydro-5H-pyrrolo[2,1-c][1,4]benzodiazepin-3-yl}(4-methyl-1-piperazinyl)methanone]",76
3,"COc1cc(C(=O)N2Cc3ccc(C(=O)n4ccnc4)n3Cc3ccccc32)ccc1-c1cccc2ccccc12 [Example 291, 1H-Imidazol-1-yl-{10-[3-methoxy-4-(1-naphthyl)benzoyl]-10,11-dihydro-5H-pyrrolo[2,1-c][1,4]benzodiazepin-3-yl}methanone]",32
4,"COc1cc(-c2ccccc2C)c(Cl)cc1C(=O)N1Cc2ccc(C(=O)NCCCN(C)C)n2Cc2ccccc21 [Example 78, 10-[(6-Chloro-3-methoxy-2′-methyl[1,1′-biphenyl]-4-yl)carbonyl]-N-[3-(dimethylamino)propyl]-10,11-dihydro-5H-pyrrolo[2,1-c][1,4]benzodiazepine-3-carboxamide]",62
5,"COc1cc(C(=O)N2Cc3ccc(C(=O)NCCCn4ccnc4)n3Cc3ccccc32)ccc1-n1c(C)ccc1C [Example 312, 10-[4-(2,5-Dimethyl-1H-pyrrol-1-yl)-3-methoxybenzoyl]-N-[3-(1H-imidazol-1-yl)propyl]-10,11-dihydro-5H-pyrrolo[2,1-c][1,4]benzodiazepine-3-carboxamide]",16
6,"COc1ccccc1-c1ccc(C(=O)N2Cc3ccc(C(=O)N[C@H]4CN5CCC4CC5)n3Cc3ccccc32)cc1 [Example 296, N-[(3R)-1-Azabicyclo[2.2.2]oct-3-yl]-10-[(2′-methoxy[1,1′-biphenyl]-4-yl)carbonyl]-10,11-dihydro-5H-pyrrolo[2,1-c][1,4]benzodiazepine-3-carboxamide]",88
7,"Cc1ccccc1-c1ccc(C(=O)N2Cc3ccc(C(=O)NCCCN(C)C)n3Cc3ccccc32)cc1 [Example 76, N-[3-(Dimethylamino)propyl]-10-[(2′-methyl[1,1′-biphenyl]-4-yl)carbonyl]-10,11-dihydro-5H-pyrrolo[2,1-c][1,4]benzodiazepine-3-carboxamide]",65
8,"COc1cc(-c2ccccc2C)c(Cl)cc1C(=O)N1Cc2ccc(C(=O)N[C@@H](CCCCNC(=O)OC(C)(C)C)C(N)=O)n2Cc2ccccc21 [Example 304, tert-Butyl (5S)-6-amino-5-[({10-[(6-chloro-3-methoxy-2′-methyl[1,1′-biphenyl]-4-yl)carbonyl]-10,11-dihydro-5H-pyrrolo[2,1-c][1,4]benzodiazepin-3-yl}carbonyl)amino]-6-oxohexylcarbamate]",74
9,"CN1CCN(C(=O)c2ccc3n2Cc2ccccc2N(C(=O)c2ccc(-c4cccc5ccccc45)cc2Cl)C3)CC1 [Example 58, {10-[2-Chloro-4-(1-naphthyl)benzoyl]-10,11-dihydro-5H-pyrrolo[2,1-c][1,4]benzodiazepin-3-yl}(4-methyl-1-piperazinyl)methanone]",24
10,"COc1cccc(-c2cc(OC)c(C(=O)N3Cc4ccc(C(=O)N[C@@H](CCCCNC(=O)OC(C)(C)C)C(N)=O)n4Cc4ccccc43)cc2Cl)c1 [Example 302, tert-Butyl (5S)-6-amino-5-[({10-[(6-chloro-3,3′-dimethoxy[1,1′-biphenyl]-4-yl)carbonyl]-10,11-dihydro-5H-pyrrolo[2,1-c][1,4]benzodiazepin-3-yl}carbonyl)amino]-6-oxohexylcarbamate]",64
